Assay results as given in patent US7517658B2, “Methods for preparing compositions using a SNORF33 receptor” (H. Lundbeck A/S, priority 1999, dated 2009).

Columns and labels:
rat SNORF33 = target: T1, rat SNORF33 (Rattus norvegicus, UniProt Q923Y9); experiment: cAMP response in stable rat SNORF33/HEK293 cells; format: cell-based; details: data not shown
T1 construct: expressed in transfected cells
Protocol: The receptor-mediated stimulation or inhibition of cyclic AMP (cAMP) formation may be assayed in cells expressing the mammalian receptors. Cells are plated in 96-well plates or other vessels and preincubated in a buffer such as HEPES buffered saline (NaCl (150 mM), CaCl2 (1 mM), KCl (5 mM), glucose (10 mM)) supplemented with a phosphodiesterase inhibitor such as 5 mM theophylline, with or without protease inhibitor cocktail (For example, a typical inhibitor cocktail contains 2 μg/ml aprotinin, […] leupeptin, and 10 μg/ml phosphoramidon.) for 20 min at 37° C., in 5% CO2. Test compounds are added with or without […] forskolin and incubated for an additional 10 min at 37° C. The medium is then aspirated and the reaction stopped by the addition of 100 mM HCl or other methods. The plates are stored at 4° C. for 15 min, and the cAMP content in the stopping solution is measured by radioimmunoassay. Radioactivity may be quantified using a gamma counter equipped with data reduction software. Specific modifications may be performed to optimize the assay for the receptor or to alter the detection method of cAMP.

hSNORF33 = target: T2, hSNORF33 (Homo sapiens, UniProt Q96RJ0); experiment: Electrophysiological response of Xenopus oocytes expressing hSNORF33 and CFTR; format: cell-based; parameters: expressed in transfected cells; host or cells: Xenopus laevis oocytes (mRNA injection, co-expressed CFTR); details: 100 μM tyramine; dependent on CFTR co-expression
T2 sequence (Q96RJ0 1-339): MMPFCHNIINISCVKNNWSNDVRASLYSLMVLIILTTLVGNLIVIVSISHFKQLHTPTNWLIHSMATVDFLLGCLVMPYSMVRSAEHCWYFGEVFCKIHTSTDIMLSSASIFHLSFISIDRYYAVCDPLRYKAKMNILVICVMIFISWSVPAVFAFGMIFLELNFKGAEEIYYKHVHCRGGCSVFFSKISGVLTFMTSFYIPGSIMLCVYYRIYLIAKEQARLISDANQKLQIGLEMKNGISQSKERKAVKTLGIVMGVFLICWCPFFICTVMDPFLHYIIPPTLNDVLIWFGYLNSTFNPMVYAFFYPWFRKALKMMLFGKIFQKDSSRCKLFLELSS
Protocol: Unless otherwise specified, oocytes were voltage clamped at a holding potential of −80 mV. During recordings, oocytes were bathed in continuously flowing (1-3 ml/min) medium containing 96 mM NaCl, 2 mM KCl, 1.8 mM CaCl2, 1 mM MgCl2, and 5 mM HEPES, pH 7.5 (ND96). […] Experiments were carried out at room temperature.

T1 sequence (Q923Y9 whole entry): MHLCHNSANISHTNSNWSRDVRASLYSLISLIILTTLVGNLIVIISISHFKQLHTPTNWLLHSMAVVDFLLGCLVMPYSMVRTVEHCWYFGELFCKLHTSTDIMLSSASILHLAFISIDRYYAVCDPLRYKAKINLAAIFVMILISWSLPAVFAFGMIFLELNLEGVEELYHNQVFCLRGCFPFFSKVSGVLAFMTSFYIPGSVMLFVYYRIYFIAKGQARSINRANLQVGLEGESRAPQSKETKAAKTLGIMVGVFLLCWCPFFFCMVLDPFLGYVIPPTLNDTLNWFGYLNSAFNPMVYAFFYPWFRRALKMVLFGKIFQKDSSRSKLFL

SMILES: NCCc1ccc(O)cc1 [Tyramine (TYR), Tyramine]
- Increase in cAMP (rat SNORF33): ~4 fold
- Stimulation of hSNORF33 currents (hSNORF33): strongly stimulated
